# Measurements published in paper PMC9965614, “Computer-Aided Virtual Screening and In Vitro Validation of Biomimetic Tyrosinase Inhibitory Peptides from Abalone Peptidome” (International Journal of Molecular Sciences, 2023).
# Where a SMILES comes first, the peptide text is derived from it.
# Key:
# mushroom tyrosinase = mushroom tyrosinase (Agaricus bisporus, UniProt C7FF04); assay: Mushroom tyrosinase activity assay (L-DOPA oxidation, diphenolase); type: biochemical; conditions: L-DOPA substrate, up to 500 μM
# Protocol: The inhibitory effect on mushroom tyrosinase was determined spectrophotometrically via L-DOPA oxidation. The reaction mixture consisted of 20 μL of hdTIPs, 140 μL of 100 mM sodium phosphate buffer (pH6.8) and 40 μL of 200 units/mL mushroom tyrosinase (EC 1.14.18.1; Sigma, Saint Louis, USA) placed in a 96-well microplate, then incubated for 10 min. After that, 20 μL of 5mM L-DOPA were mixed into each well over 20 min. Furthermore, the amount of dopachrome produced absorbance was measured at 475 nm. In addition, KA was used as the positive control at the same concentrations and conditions to hdTIPs. This method was modified from Kim et al..
# The mushroom tyrosinase inhibitory activity was calculated with the following equation: % Mushroom tyrosinase inhibition=[(C)−(S)/(C)]×100, where, C represents the OD475 of control and S is the OD475 of sample. All experiments were performed in triplicate to determine the IC50 of the samples.
# cellular tyrosinase = target: T1, cellular tyrosinase (Mus musculus, UniProt P11344); assay: Intracellular (cellular) tyrosinase activity assay in UV-induced B16F10 cells; type: cell-based, murine; conditions: 70 μM peptide, UVA/UVB-induced B16F10 cells, triplicate
# T1 construct: the harvested cells were lysed in cell extraction buffer; endogenous in cells; host or cells: B16F10 murine melanoma cells, UVA/UVB-induced
# T1 sequence (P11344 19-533): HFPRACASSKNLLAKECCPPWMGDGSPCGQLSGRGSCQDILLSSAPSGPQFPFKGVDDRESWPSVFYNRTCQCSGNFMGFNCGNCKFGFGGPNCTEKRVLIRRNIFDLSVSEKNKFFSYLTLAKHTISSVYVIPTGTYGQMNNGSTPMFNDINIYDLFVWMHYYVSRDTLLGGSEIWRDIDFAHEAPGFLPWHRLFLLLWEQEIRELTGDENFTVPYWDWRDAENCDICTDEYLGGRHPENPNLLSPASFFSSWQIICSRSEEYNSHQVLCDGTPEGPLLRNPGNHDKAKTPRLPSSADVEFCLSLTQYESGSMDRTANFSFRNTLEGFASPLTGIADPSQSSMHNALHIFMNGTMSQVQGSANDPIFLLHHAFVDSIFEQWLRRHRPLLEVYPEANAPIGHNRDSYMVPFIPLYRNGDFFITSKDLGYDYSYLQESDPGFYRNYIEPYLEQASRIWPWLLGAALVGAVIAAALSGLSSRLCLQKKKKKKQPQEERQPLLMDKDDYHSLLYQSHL
# Protocol: Tyrosinase activity was measured based on Dopa oxidase activity by estimating the dopachrome production according to the method by Qiao et al., 2012 [54], with some modifications. B16F10 cells were seeded at 5 × 10^6 cells/mL in 24-well plates. […] Each well was then washed and replaced with PBS 600 μL and induced with UVA (314-400 nm, 3.0 W) and UVB (280-315 nm, 13.6 W) using OSRAM (Ultra-Vitalux, Germany) for 22 s (0.32 J/cm^2). After that, the cells were incubated with medium 600 μL/well for a further 24 h. Then, the cells were trypsinized and the harvested cells were lysed in cell extraction buffer. After normalized protein concentration, 10 μL of each lysate supernatant was aliquoted into a 96-well plate and shaking incubated in dark conditions with 1 mM L-DOPA 90 μL in PBS at 37 °C at 280 rpm for 10 min. The absorbance was measured at 475 nm and all experiments were performed in triplicate to determine the IC50 of the samples. The cellular tyrosinase inhibitory activity was calculated with the following equation: % Cellular tyrosinase inhibition=[(C)-(S)/(C)]×100, where, C are defined as in the previous section.
# B16F10 melanoma cells = assay: Melanin content assay in UV-induced B16F10 cells; type: cell-based, murine; conditions: 70 μM peptide, UVA/UVB-induced B16F10 cells, triplicate
# Protocol: Cellular melanin content was measured using a modified method by Jegal, et al.. B16F10 cells were seeded at 5 × 10^5 cells/mL in 24-well plates. […] After that, the cells in each well were washed and replaced by PBS. The UV stimulation process was performed by the exposure to UVA (314-400 nm, 3.0 W) and UVB (280-315 nm, 13.6 W) for 22 s. Then, PBS was replaced with media and further incubated for 24 h. The UV-stimulated cells were then trypsinized and centrifuged at 1500 rpm for 5 min. The cell pellet was then dissolved in 2 M NaOH at 60 °C for 1 h to solubilize the melanin. The melanin content was estimated by measuring the absorbance at 405 nm. The melanin content was calculated with the following equation: % Melanin content=(S)/(C)×100, where, S is the OD405 of sample and C represents the OD405 of control. All experiments were performed in triplicate.
# [1] = tested on: superoxide dismutase (SOD); assay: Antioxidative enzyme activity, superoxide dismutase (assay kit); type: cell-based, murine; conditions: 70 μM, UV-exposed B16F10 cells
# Protocol: (§1) To determine the antioxidant activity, the centrifugation precipitate from Section 4.6 was dissolved in 1 mL of 1 M NaOH containing 10% DMSO at 80 °C for 1 h. Various assay kits, all from Beijing Solarbio Science & Technology Co., Ltd., Beijing, China, were used to measure the quantity of reduced reactive oxygen species (ROS) and the activity of superoxide dismutase (SOD), catalase (CAT), and glutathione peroxidase (GPx) according to the methods by Hu et al..
# [2] = tested on: glutathione peroxidase (GPx); assay: Antioxidative enzyme activity, glutathione peroxidase (assay kit); type: cell-based, murine; conditions: 70 μM, UV-exposed B16F10 cells
# Protocol: as §1
# tyrosinase [3] = conditions: KNN machine learning model, 425 sequence features; cited from earlier work
# Text: (§2) Table 1 Abalone predicted TIPs by KNN and RF-based predictors and the predicted antioxidant scores by AnOxPePred 1.0 program. | column: Predicted Anti-Tyrosinase Probability / KNN Predictor || Previously, our research team proposed the in-house machine learning-based anti-tyrosinase prediction tool, which provides thousands of potential peptides. The probability scores of all 1079 peptides from KNN-based and RF-based models can be found in the supplementary file of the previous article by Kongsompong et al.. The KNN and RF predictors were trained and tested against 133 peptides with known anti-tyrosinase properties with 97% and 99% accuracy. The predictions of both models were based on the numeric matrix of 425 features calculated from amino acid composition (20 featur ...
# tyrosinase [4] = conditions: RF machine learning model, 425 sequence features; cited from earlier work
# Text: as §2, with “/ RF” for “/ KNN”
# Sequence of mushroom tyrosinase (C7FF04 1-392): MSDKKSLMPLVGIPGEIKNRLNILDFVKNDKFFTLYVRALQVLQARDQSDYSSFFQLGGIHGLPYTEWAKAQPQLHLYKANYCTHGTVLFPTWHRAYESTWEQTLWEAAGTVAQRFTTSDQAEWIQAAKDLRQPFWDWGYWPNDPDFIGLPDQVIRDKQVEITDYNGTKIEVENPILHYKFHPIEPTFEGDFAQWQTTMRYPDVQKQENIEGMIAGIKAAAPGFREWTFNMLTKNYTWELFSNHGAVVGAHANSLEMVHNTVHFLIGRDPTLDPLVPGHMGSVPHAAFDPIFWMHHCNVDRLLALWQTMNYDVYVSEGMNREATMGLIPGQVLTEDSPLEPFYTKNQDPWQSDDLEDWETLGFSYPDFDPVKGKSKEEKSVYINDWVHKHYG
# Sequence of mushroom tyrosinase (G1K3P4 1-150 partner): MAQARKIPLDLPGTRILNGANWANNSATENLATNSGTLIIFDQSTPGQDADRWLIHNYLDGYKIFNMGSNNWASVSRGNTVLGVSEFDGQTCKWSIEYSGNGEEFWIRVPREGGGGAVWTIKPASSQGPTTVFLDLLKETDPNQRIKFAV
compound,measurement,setting,value
CSCC[C@H](NC(=O)[C@H](CCC(N)=O)NC(=O)[C@H](CO)NC(=O)[C@@H](N)[C@@H](C)O)C(=O)N[C@@H](CO)C(=O)N[C@@H](CCCNC(=N)N)C(=O)N[C@@H](CO)C(=O)N[C@@H](CO)C(=O)N[C@@H](CO)C(=O)N[C@@H](CCCNC(=N)N)C(=O)O [KNN2] (H-TSQMSRSSSR-OH; N-terminus and C-terminus assumed),inhibitory effect on mushroom tyrosinase (diphenolase activity),mushroom tyrosinase,did not show any inhibition
same,inhibition of cellular tyrosinase,cellular tyrosinase,fourth-most-effective inhibitor
same,inhibition of melanin content,B16F10 melanoma cells,fourth-most-effective inhibitor
same,effect on SOD activity,[1],elevated
same,effect on GPx activity,[2],elevated
same,Predicted Anti-Tyrosinase Probability KNN Predictor,tyrosinase [3],1.00
same,Predicted Anti-Tyrosinase Probability RF Predictor,tyrosinase [4],0.37
